Test [1] has as its system Pseudomonas aeruginosa. Description: Antibacterial activity against Pseudomonas aeruginosa NY214 by broth dilution method. The test is classed as functional. In general terms: In broth dilution the organism is exposed to a series of concentrations in liquid medium.
The subject of test [2] is Pseudomonas aeruginosa. Put plainly: Antibacterial activity against Pseudomonas aeruginosa NY215 by broth dilution method. The test is classed as functional.
Test [3] deals with Pseudomonas aeruginosa. Put plainly: Antibacterial activity against Pseudomonas aeruginosa NY217 by broth dilution method. The test is classed as functional.
Test [4] relates to Pseudomonas aeruginosa. Put plainly: Antibacterial activity against Pseudomonas aeruginosa NY220 by broth dilution method. The class given is functional.
The subject of test [5] is Pseudomonas aeruginosa. Put plainly: Antibacterial activity against Pseudomonas aeruginosa PAO1 by broth dilution method. The test is classed as functional.
For test [6], the system named is Pseudomonas aeruginosa. Description: Antibacterial activity against Pseudomonas aeruginosa NY219 by broth dilution method. The class given is functional.
Test [7] deals with Pseudomonas aeruginosa. Put plainly: Antibacterial activity against Pseudomonas aeruginosa PAO1 harboring Pseudomonas aeruginosa NY219 deltaoprH-phoPQ::Gm/pAU149 by broth dilution method. The test is classed as functional, organism-based.
Test [8] has as its system Pseudomonas aeruginosa. Put plainly: Antibacterial activity against Pseudomonas aeruginosa PAO1 harboring deltapmrAB::Tc/pUCP18 by broth dilution method. The class given is functional, organism-based.
For test [9], the system named is Pseudomonas aeruginosa. Description: Antibacterial activity against Pseudomonas aeruginosa NY215 harboring pUCP18 by broth dilution method. The test is classed as functional, organism-based.
In test [10] the test system is Pseudomonas aeruginosa. Put plainly: Antibacterial activity against Pseudomonas aeruginosa PAO1 harboring deltaoprH-phoPQ::Gm by broth dilution method. The test is classed as functional, organism-based.
Test [11] has as its system Pseudomonas aeruginosa. Put plainly: Antibacterial activity against Pseudomonas aeruginosa PAO1 harboring deltapmrAB::Tc by broth dilution method. The test is classed as functional, organism-based.
Test [12] concerns Pseudomonas aeruginosa. Put plainly: Antibacterial activity against Pseudomonas aeruginosa NY217 harboring arnB::TC by broth dilution method. The class given is functional, organism-based.
The test system of test [13] is Pseudomonas aeruginosa. Description: Antibacterial activity against Pseudomonas aeruginosa PAO1 harboring Pseudomonas aeruginosa NY215 deltaoprH-phoPQ::Gm/pAU147 by broth dilution method. The class given is functional, organism-based.
The test system of test [14] is Pseudomonas aeruginosa. Put plainly: Antibacterial activity against Pseudomonas aeruginosa NY219 harboring Pseudomonas aeruginosa PAO1 pmrAB gene by broth dilution method. The class given is functional, organism-based.
The test system of test [15] is Pseudomonas aeruginosa. Put plainly: Antibacterial activity against Pseudomonas aeruginosa NY220 harboring Pseudomonas aeruginosa PAO1 pmrAB gene by broth dilution method. The class given is functional, organism-based.
Test [16] has as its system Pseudomonas aeruginosa. Put plainly: Antibacterial activity against Pseudomonas aeruginosa PAO1 harboring arnB::TC by broth dilution method. The test is classed as functional, organism-based.
The subject of test [17] is Pseudomonas aeruginosa. Put plainly: Antibacterial activity against Pseudomonas aeruginosa NY217 harboring Pseudomonas aeruginosa PAO1 phoPQ gene by broth dilution method. The test is classed as functional, organism-based.
Test [18] concerns Pseudomonas aeruginosa. Put plainly: Antibacterial activity against Pseudomonas aeruginosa NY220 harboring arnB::TC by broth dilution method. The class given is functional, organism-based.
In test [19] the test system is Pseudomonas aeruginosa. Description: Antibacterial activity against Pseudomonas aeruginosa NY215 harboring Pseudomonas aeruginosa PAO1 pmrAB gene by broth dilution method. The class given is functional, organism-based.
Test [20] has as its system Pseudomonas aeruginosa. Description: Antibacterial activity against Pseudomonas aeruginosa NY217 harboring Pseudomonas aeruginosa PAO1 pmrAB gene by broth dilution method. The test is classed as functional, organism-based.
The subject of test [21] is Pseudomonas aeruginosa. Description: Antibacterial activity against Pseudomonas aeruginosa NY220 harboring pUCP18 by broth dilution method. The test is classed as functional, organism-based.
Test [22] deals with Pseudomonas aeruginosa. Description: Antibacterial activity against Pseudomonas aeruginosa PAO1 harboring Pseudomonas aeruginosa NY217 deltaoprH-phoPQ::Gm/pAU148 by broth dilution method. The class given is functional, organism-based.
The test system of test [23] is Pseudomonas aeruginosa. Put plainly: Antibacterial activity against Pseudomonas aeruginosa NY219 harboring pUCP18 by broth dilution method. The class given is functional, organism-based.
Test [24] concerns Pseudomonas aeruginosa. Description: Antibacterial activity against Pseudomonas aeruginosa NY214 harboring Pseudomonas aeruginosa PAO1 phoPQ gene by broth dilution method. The test is classed as functional, organism-based.
The subject of test [25] is Pseudomonas aeruginosa. Put plainly: Antibacterial activity against Pseudomonas aeruginosa PAO1 harboring Pseudomonas aeruginosa NY214 deltaoprH-phoPQ::Gm/pAU146 by broth dilution method. The class given is functional, organism-based.
The test system of test [26] is Pseudomonas aeruginosa. Put plainly: Antibacterial activity against Pseudomonas aeruginosa PAO1 harboring Pseudomonas aeruginosa PAO1 deltaoprH-phoPQ::Gm/pAU124 by broth dilution method. The class given is functional, organism-based.
In test [27] the test system is Pseudomonas aeruginosa. Description: Antibacterial activity against Pseudomonas aeruginosa NY214 harboring Pseudomonas aeruginosa PAO1 pmrAB gene by broth dilution method. The class given is functional, organism-based.
The subject of test [28] is Pseudomonas aeruginosa. Put plainly: Antibacterial activity against Pseudomonas aeruginosa NY219 harboring Pseudomonas aeruginosa PAO1 phoPQ gene by broth dilution method. The class given is functional, organism-based.
In test [29] the test system is Pseudomonas aeruginosa. Description: Antibacterial activity against Pseudomonas aeruginosa NY214 harboring pUCP18 by broth dilution method. The test is classed as functional, organism-based.
The test system of test [30] is Pseudomonas aeruginosa. Description: Antibacterial activity against Pseudomonas aeruginosa PAO1 harboring deltaoprH-phoPQ::Gm/pUCP18 by broth dilution method. The test is classed as functional, organism-based.
Test [31] concerns Pseudomonas aeruginosa. Put plainly: Antibacterial activity against Pseudomonas aeruginosa NY217 harboring pUCP18 by broth dilution method. The test is classed as functional, organism-based.
The test system of test [32] is Pseudomonas aeruginosa. Description: Antibacterial activity against Pseudomonas aeruginosa PAO1 harboring Pseudomonas aeruginosa NY220 deltapmrAB::Tc/pAU154 by broth dilution method. The class given is functional, organism-based.
The subject of test [33] is Pseudomonas aeruginosa. Put plainly: Antibacterial activity against Pseudomonas aeruginosa PAO1 harboring Pseudomonas aeruginosa PAO1 deltapmrAB::Tc/pAU126 by broth dilution method. The test is classed as functional, organism-based.
Test [34] concerns Pseudomonas aeruginosa. Description: Antibacterial activity against Pseudomonas aeruginosa NY220 harboring Pseudomonas aeruginosa PAO1 phoPQ gene by broth dilution method. The class given is functional, organism-based.
The test system of test [35] is Pseudomonas aeruginosa. Description: Antibacterial activity against Pseudomonas aeruginosa NY215 harboring arnB::TC by broth dilution method. The test is classed as functional, organism-based.
Test [36] deals with Pseudomonas aeruginosa. Description: Antibacterial activity against Pseudomonas aeruginosa NY214 harboring arnB::TC by broth dilution method. The class given is functional, organism-based.
Test [37] relates to Pseudomonas aeruginosa. Description: Antibacterial activity against Pseudomonas aeruginosa NY215 harboring Pseudomonas aeruginosa PAO1 phoPQ gene by broth dilution method. The class given is functional, organism-based.

In brackets after ≈: the same amount, converted by molar mass.

Usually MIC stands for the least concentration at which growth counts as inhibited. The low end stands for inhibition by little substance, the high end for a need for much substance.

In the case of `CC1(C)S[C@@H]2[C@H](NC(=O)[C@H](C(=O)O)c3ccsc3)C(=O)N2[C@H]1C(=O)O` [TICARCILLIN], the MIC is 32 µg/mL (≈ 83.2 µM) in [1]; 32 µg/mL (≈ 83.2 µM) in test [2]; 32 µg/mL (≈ 83.2 µM) in test [3]; 32 µg/mL (≈ 83.2 µM) in test [4]; 8 µg/mL (≈ 20.8 µM) in test [5]; 32 µg/mL (≈ 83.2 µM) in test [6].

As for `CC1(C)S[C@@H]2[C@H](NC(=O)[C@H](NC(=O)N3CCNC3=O)c3ccccc3)C(=O)N2[C@H]1C(=O)O` [AZLOCILLIN], the MIC in test [1] amounted to 8 µg/mL (≈ 17.3 µM); in [2], 8 µg/mL (≈ 17.3 µM); in test [3] it was 16 µg/mL (≈ 34.7 µM); in [4], 16 µg/mL (≈ 34.7 µM); in test [5], 2 µg/mL (≈ 4.33 µM); in [6], 8 µg/mL (≈ 17.3 µM).

Take `CC1(C)S[C@@H]2[C@H](NC(=O)C(C(=O)O)c3ccccc3)C(=O)N2[C@H]1C(=O)O` (stereo partly specified) [CARBENICILLIN]: the MIC is 256 µg/mL (≈ 677 µM) in [1]; 256 µg/mL (≈ 677 µM) in [2]; greater than 256 µg/mL in [3]; greater than 256 µg/mL in test [4]; 64 µg/mL (≈ 169 µM) in test [5]; 256 µg/mL (≈ 677 µM) in test [6].

Take POLYMYXIN B: the MIC is 4 µg/mL in [7]; 0.25 µg/mL in test [8]; 8 µg/mL in test [9]; 8 µg/mL in test [1]; 0.5 µg/mL in [10]; 0.25 µg/mL in test [11]. The MIC in [12] is 0.5 µg/mL; in [13] it was 4 µg/mL; in test [14], 1 µg/mL; in [15], 8 µg/mL; in test [16], 0.5 µg/mL; in [17], 1 µg/mL. Further, the MIC in test [2] is 8 µg/mL; in test [18], 0.5 µg/mL; in [3] it was 8 µg/mL; in test [19], 0.5 µg/mL; in test [20], 1 µg/mL; in test [21], 8 µg/mL. Also, the MIC in [22] is 4 µg/mL; in test [23] it was 8 µg/mL; in [24], 1 µg/mL; in [25], 4 µg/mL; in test [26], 0.25 µg/mL; in [27] it was 1 µg/mL. For the same compound, the MIC was 8 µg/mL in [4]; 1 µg/mL in test [28]; 8 µg/mL in test [29]; 0.25 µg/mL in test [30]; 8 µg/mL in [31]; 4 µg/mL in test [32]. Further, the minimal inhibitory concentration (MIC) is less than 0.25 µg/mL in test [33]; 8 µg/mL in test [34]; 0.5 µg/mL in test [35]; 0.5 µg/mL in [36]; 0.5 µg/mL in test [5]; 0.5 µg/mL in test [37]. In [6], this compound showed an MIC of 8 µg/mL.

For the compound `CO/N=C(\C(=O)N[C@@H]1C(=O)N2C(C(=O)O)=C(CSc3nc(=O)c(O)nn3C)CS[C@H]12)c1csc(N)n1` [CEFTRIAXONE], the MIC in test [1] amounted to 16 µg/mL (≈ 28.9 µM); in test [2], 32 µg/mL (≈ 57.7 µM); in test [3] it was 16 µg/mL (≈ 28.9 µM); in test [4], 32 µg/mL (≈ 57.7 µM); in test [5], 4 µg/mL (≈ 7.21 µM); in test [6] it was 32 µg/mL (≈ 57.7 µM).

On to `NC[C@H]1O[C@H](O[C@H]2[C@H](O)[C@@H](O[C@H]3O[C@H](CO)[C@@H](O)[C@H](N)[C@H]3O)[C@H](N)C[C@@H]2N)[C@H](N)C[C@@H]1O` [TOBRAMYCIN], for which the MIC is 2 µg/mL (≈ 4.28 µM) in [1]; 2 µg/mL (≈ 4.28 µM) in [2]; 1 µg/mL (≈ 2.14 µM) in test [3]; 8 µg/mL (≈ 17.1 µM) in [4]; 0.25 µg/mL (≈ 0.535 µM) in [5]; 2 µg/mL (≈ 4.28 µM) in test [6].

Consider GENTAMICIN, for which the MIC was 4 µg/mL in test [1]; 32 µg/mL in [2]; 4 µg/mL in [3]; 4 µg/mL in test [4]; 0.25 µg/mL in [5]; 4 µg/mL in test [6].

For the compound `O=C(O)c1cn(C2CC2)c2cc(N3CCNCC3)c(F)cc2c1=O` [CIPROFLOXACIN], the values for the MIC in test [2] and in test [3] were 4 µg/mL (≈ 12.1 µM) and 1 µg/mL (≈ 3.02 µM), respectively.

As for `CCn1cc(C(=O)O)c(=O)c2ccc(C)nc21` [NALIDIXIC ACID], the MIC in test [1] is greater than 256 µg/mL; in test [2] it was greater than 256 µg/mL; in test [3] it was 64 µg/mL (≈ 276 µM); in [4], greater than 256 µg/mL; in test [5], 64 µg/mL (≈ 276 µM); in test [6] it was 64 µg/mL (≈ 276 µM).

These data come from ChEMBL document CHEMBL1649275, “Alterations in two-component regulatory systems of phoPQ and pmrAB are associated with polymyxin B resistance in clinical isolates of Pseudomonas aeruginosa” (2009).
